Measured values: patent US9844529B2, “Combination therapy for ovarian cancer” (Eli Lilly And Company, priority 2011, dated 2017)

Columns and labels:
SK-OV-3x.luc xenografts = assay: SK-OV-3x.luc ovarian cancer xenograft tumor growth inhibition in mice; assay type: in vivo, mouse
Protocol: (§1) Human tumor mouse xenografts are generated from early passages of the following ovarian cancer cell lines: A-2780 (National Cancer Institute), SK-OV-3x.luc (SK-OV-3 cell line modified to express luciferase (#1, medium expressing), Indiana University). A-2780 ovarian cancer cells are grown in RPMI 1640 with L-glutamine, 25 mM HEPES (Invitrogen 22400-089) supplemented with 1 mM pyruvate and 10% Certified Fetal Bovine Serum (Gibco 16000, FBS). SK-OV-3x.luc cells (ovarian cancer cells) are grown in McCoy's 5A Medium with L-glutamine (Invitrogen 16600-082) supplemented with non-essential amino acids, 1 mM pyruvate and 10% FBS. Harlan athymic nude mice (6-7 weeks old) are housed with ad libitum feed and water, and are acclimated for one week prior to subcutaneous xenograft implantation in the right rear flank with a defined number of cells. A-2780 or SK-OV-3x.luc implants consist of 0.1 mL of cells (2 or 5×10^6 cells, respectively) in serum-free media with 0.1 mL MATRIGEL® (BD Biosciences) for a final volume of 0.2 mL. Tumors are allowed to develop to a volume of 120-150 mm^3 and are then randomized into treatment groups to attain a consistent average tumor size across all groups. Each treatment group of the SK-OV-3x.luc study is 12 animals; each group of the A-2780 study is 20 animals. Compound A is prepared weekly in hydroxyethylcellulose (HEC) 1%/TWEEN® 80 0.25%/Antifoam 0.05% (HEC/TWEEN®) and stored at 4° C. […] Compound A, 30 mg/kg, oral, TID×21/gemcitabine+cisplatin, 100+4 mg/kg, IP, QW×3* • *SK-OV-3x.luc study only Tumor volume and body weight are recorded and analyzed twice weekly using a data capture and analysis tool. Tumor volume (mm^3) is estimated by using the formula: ν=l×w^2×0.536 where l=larger of measured diameter and w=smaller of perpendicular diameter. Antitumor activity is calculated as a percent reduction of treated (T) tumor volume relative to untreated control (C) tumor volume [1−(T/C)]×100. […]

A-2780 xenografts = assay: A-2780 ovarian cancer xenograft tumor growth inhibition in mice; assay type: in vivo, mouse; details: Compound A 10 mg/kg oral TID×21 alone
Protocol: as §1, with “cells.” for “cells. A-2780 or SK-OV-3x.luc implants consist of 0.1 mL of cells (2 or 5×10^6 cells, respectively) in serum-free media with 0.1 mL MATRIGEL® (BD Biosciences) for a final volume of 0.2 mL. Tumors are allowed to develop to a volume of 120-150 mm^3 and are then randomized into treatment groups to attain a consistent average tumor size across all groups. Each treatment group of the SK-OV-3x.luc study is 12 animals; each group of the A-2780 study is 20 animals. Compound A is prepared weekly in hydroxyethylcellulose (HEC) 1%/TWEEN® 80 0.25%/Antifoam 0.05% (HEC/TWEEN®) and stored at 4° C.”

## CC(C)(C)Cn1c(N)nc2ccc(-c3nc(C(C)(C)C)[nH]c3-c3ccc(F)cc3)nc21 [Compound A, 5-[2-tert-Butyl-5-(4-fluorophenyl)-1H-imidazol-4-yl]-3-(2,2-dimethylpropyl)imidazo[4,5-b]pyridin-2-amine dimethanesulfonate]
SK-OV-3x.luc xenografts; Compound A 30 mg/kg oral TID×21 alone, SK-OV-3x.luc
  Max % wt. loss: 1.4%
SK-OV-3x.luc xenografts; Compound A 30 mg/kg oral TID×21 alone, SK-OV-3x.luc, 3 weeks
  final tumor volume: 522 ± 54 mm^3
SK-OV-3x.luc xenografts; Compound A alone, 3 weeks, SK-OV-3x.luc xenografts
  final average tumor volume compared with vehicle control: not significantly different from vehicle control
A-2780 xenografts
  Max % wt. loss: 3.0%
A-2780 xenografts; 3 weeks
  final tumor volume: 1828 ± 208 mm^3
